Data on 11 molecules can be found in patent US20230330064A1, “TYROSINE, TRYPTOPHAN AND PHENYLALANINE AS mTOR AGONISTS MEDIATING PROTEASOME DYNAMICS, COMPOSITIONS, METHODS AND USES THEREOF IN THERAPY, AND PROGNOSTIC METHODS FOR DRUG-RESISTANCE” (Technion Research & Development Foundation Limited, priority 2020, published 2023).

The subject of one experiment is 26S proteasome. Kind of experiment: Proteasome subcellular localization in cultured cells (immunofluorescence, western blot of nuclear fractions). Type of experiment: cell-based. To be noted: for proteasome localization without exogenous starvation: non-stressed cells, complete medium; for starvation-induced proteasome translocation from the nucleus to the cytosol: substance added to amino acid starvation medium, 8 h. The method, then:
(§1) Cells were seeded on glass cover slips for 36 h. Following the indicated treatments, they were fixed with 4% PFA for 15 min, washed with (phosphate-buffered saline) PBS and incubated in PBS containing 10% goat serum for 1h at room temperature, followed by 2 h incubation with the indicated primary antibody. Following extensive wash with PBS, the fixed cells were incubated with the relevant secondary antibody for 1 h, washed and mounted. Images were acquired using Zeiss LSM 700 confocal microscope (Zeiss, Oberkochen, Germany).
The proteasome subunits α6, β1, and PSMD1 were visualized via indirect immunofluorescence, using primary and secondary antibodies listed under Key Resources Table. To observe the proteasome in live cells, we expressed the cDNAs of the β4, Rpn2, Rpn6, and Rpn13 proteasome subunits C-terminally fused with GFP. Photoconversion of proteasome-fused Dendra2 was carried out as previously described (McKinney et al., 2009 Nat Methods. 131-133).
Cells were incubated for 20 min in fractionation buffer [20 mM HEPES pH 7.3, 10 mM KCl, 5 mM ATP, 5 mM MgCl2, and protease inhibitor cocktail (Roche)], followed by the addition of NP-40 (to 0.1%). They were then mixed thoroughly and centrifuged at 1,000×g for 5 min. The supernatant was collected as cytosolic fraction, and the pellet (nuclei) was washed twice with PBS. To dissolve the nuclear pellet, fractionation buffer supplemented with 0.5% sodium deoxycholate was added followed by sonication.
(§2) Cells were washed twice with ice cold PBS and scraped into lysis buffer (50 mM Tris-HCl, pH 7.4, 130 mM NaCl, 0.5% NP-40) supplemented with freshly added protease inhibitor cocktail, 5 mM ATP, 10 mM iodoacetamide, and 5 mM N-ethyl maleimide. Protein concentration was measured by the BCA assay according to the manufacturer's instructions (Pierce, Rockford, IL). 30 μg of cellular protein were resolved via SDS-PAGE, transferred to a nitrocellulose membrane and immunoblotted with the appropriate antibody.
Background: In western blotting, separated proteins are transferred to a membrane and probed.

In experiment [1] the target is proteasome subunit beta type-5 (PSMB5) (Homo sapiens, UniProt P20618+P28074). To be noted: cited from earlier work.
Experiment [2] has as its target L-type amino acid transporter 1 (LAT-1) (Homo sapiens, UniProt Q01650). To be noted: cited from earlier work.
Experiment [3] relates to human bladder cancer T24 cell line. To be noted: cited from earlier work.
For another experiment, the system named is tumor. Conditions: in vivo; cited from earlier work.
A further experiment deals with proteasome. Description: Live imaging of proteasome activity probe Me4BodipyFL-Ahx3Leu3VS in cells. Conditions: added to the starvation medium. It is filed as cell-based. The method, then: Live cell proteasome activity was followed as previously described (Berkers et al., 2007, Mol Pharm; 4(5):739-48.). In brief, Me4BodipyFL-Ahx3Leu3VS was added to the medium to a final concentration of 1 μM. Following incubation for 15 min, the cells were visualized by a Zeiss LSM 700 confocal microscope. In vitro proteasome activity assay was carried out as previously described (Braten et al., 2016). In brief, cellular fractions were incubated at 37° C. for 30 min with 5 μM Suc-LLVY-AMC (Succinyl-Lu-Leu-Val-Tyr-amido-4-methylcoumarin) in a reaction buffer (40 mM Tris-HCl pH 7.2, 2 mM DTT, 5 mM MgCl2, 10 mM creatine phosphate, 0.1 mg/ml creatine phosphate kinase, 5 mM ATP). Reactions were stopped by adding 1% SDS, and fluorescence was measured at 360 nm/460 nm (ex/em).

The test system of experiment [4] is cellular proteins. Kind of experiment: Proteomic analysis of cellular protein levels. Type of experiment: cell-based, human. Conditions: amino acid starvation. The method, then: 2-3 mg of cell extract protein in 8 M Urea and 100 mM ammonium bicarbonate, were incubated with DTT (2.8 mM; 30 min at 60° C.), modified with iodoacetamide (8.8 mM; 30 min at room temperature in the dark), and digested (overnight at 37° C.) with modified trypsin (Promega; 1:50 enzyme-to-substrate ratio) in 2 M Urea and 25 mM ammonium bicarbonate. Additional second trypsinization was carried out for 4 hours. The tryptic peptides were desalted using Sep-Pak C18 (Waters) and dried. 10 μg of protein were used for proteome analysis as described under Mass spectrometry.
Tryptic peptides were analyzed by LC-MS/MS using a Q Exactive plus mass spectrometer (Thermo Fisher Scientific) fitted with a capillary HPLC (easy nLC 1000, Thermo). […]
The mass spectrometry raw data were analyzed by the MaxQuant software (version 1.4.1.2, http://www.maxquant.org) for peak picking and quantification. […] The MaxQuant software was used for label-free semi-quantitative analysis [based on extracted ion currents (XICs) of peptides], enabling quantification from each LC/MS run for each peptide identified in any of the experiments. In samples that were SILAC-labeled, quantification was also carried out using the MaxQuant software. […]

Experiment [5] is described as follows: Amino acids level measurement (LC-MS). It is filed as cell-based. To be noted: Torin1-treated cells. The method, then: Metabolic analysis was carried out as previously described (MacKay et al., 2015). Briefly, cells were rapidly washed 3 times with ice-cold PBS and extracted with an aqueous solution of 50% Methanol, and 30% Acetonitrile. Samples were centrifuged at 16,000×g for 10 min at 4° C., and the supernatants were analyzed using HPLC-MS (Q-Exactive Orbitrap Mass Spectrometer (Thermo Scientific) coupled to Thermo Scientific UltiMate 3000 HPLC system). The HPLC setup consisted of a ZIC-pHILIC column (SeQuant, 150×2.1 mm, 5 μm, Merck) with a ZIC-pHILIC guard column (SeQuant, 20×2.1 mm). The aqueous mobile phase solvent was 20 mM ammonium carbonate adjusted to pH 9.4 with 0.1% ammonium hydroxide. The organic mobile phase was acetonitrile. […] All metabolites were detected across a mass range of 75-1,000 m/z using the Q-Exactive mass spectrometer at a resolution of 35,000 (at 200 m/z) with electrospray ionization and polarity switching mode. […] The peak areas of different Amino Acids were determined using Thermo TraceFinder software through which metabolites were identified by the exact mass of the singly charged ion and by known retention time on the HPLC column. Commercially available standard compounds had been analyzed before to determine ion masses and retention times on the ZIC-pHILIC column. Protein quantitation based on the Lowry method was performed for normalization.

For the next experiment, the target named is T1, exportin-1 (Homo sapiens, UniProt O14980).
T1 construct: endogenous in cells; host or cells: HeLa
Kind of experiment: Nuclear export of exportin-1 substrates (p65, APC, NES-GFP) in HeLa cells. Type of experiment: cell-based. Conditions: 8 h. Here is the method: FIG. 4G. HeLa cells were incubated under the indicated conditions, and the β4 subunit of the proteasome as well as the p65 subunit of NF-κB—which is a CRM1 substrate—were visualized.
FIG. 4H. HeLa cells were incubated under the indicated conditions, and the β4 subunit of the proteasome as well as the CRM1 substrate APC (adenomatous polyposis coli) were visualized.
FIG. 4I. HeLa cells infected with GFP fused to a nuclear export signal (NES) were incubated for 8h under the indicated conditions. The GFP was visualized.
as §1

The subject of experiment [6] is cellular proteins. Kind of experiment: Degradation of radiolabeled cellular proteins. It is filed as cell-based. Conditions: starved cells. The method, then:
Cells were labeled with […] methionine and cysteine (20 μCi/ml) for 16 h. This was followed extensive washing and further incubation in a medium containing 2 mM of the two unlabeled amino acids for 8 h. Degradation rates were assessed by determining the release of labeled amino acids to the incubation medium relative to the radioactivity remained in the cellular proteins (using Trichloroacetic acid precipitation to separate between the two) (Gropper et al., 1991, JPEN J Parenter Enteral Nutr 15, 48-53.).

A further experiment concerns ubiquitin adducts. Description: Western blot for ubiquitin adducts. Type of experiment: cell-based. To be noted: starved cells. Here is the method:
FIG. 5E. Western blot for ubiquitin adducts of extracts of cells treated as indicated. Intensities relative to control are presented.
as §2

Sequence of L-type amino acid transporter 1 (LAT-1) (Q01650 whole entry): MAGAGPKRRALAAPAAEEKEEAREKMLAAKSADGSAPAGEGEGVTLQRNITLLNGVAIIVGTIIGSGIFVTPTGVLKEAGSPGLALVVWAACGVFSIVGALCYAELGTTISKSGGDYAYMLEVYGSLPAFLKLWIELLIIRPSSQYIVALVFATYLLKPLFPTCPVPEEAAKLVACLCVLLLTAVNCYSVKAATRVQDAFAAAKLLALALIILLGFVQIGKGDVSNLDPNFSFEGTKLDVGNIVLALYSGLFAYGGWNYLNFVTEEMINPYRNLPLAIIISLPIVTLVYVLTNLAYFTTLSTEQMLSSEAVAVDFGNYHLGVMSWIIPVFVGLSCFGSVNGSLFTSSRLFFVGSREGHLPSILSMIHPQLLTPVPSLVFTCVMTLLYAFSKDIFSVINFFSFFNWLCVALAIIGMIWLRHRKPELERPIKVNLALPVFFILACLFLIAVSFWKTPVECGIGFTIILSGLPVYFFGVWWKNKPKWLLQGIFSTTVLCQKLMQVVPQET
Sequence of L-type amino acid transporter 1 (LAT-1) (P08195 102-630 partner): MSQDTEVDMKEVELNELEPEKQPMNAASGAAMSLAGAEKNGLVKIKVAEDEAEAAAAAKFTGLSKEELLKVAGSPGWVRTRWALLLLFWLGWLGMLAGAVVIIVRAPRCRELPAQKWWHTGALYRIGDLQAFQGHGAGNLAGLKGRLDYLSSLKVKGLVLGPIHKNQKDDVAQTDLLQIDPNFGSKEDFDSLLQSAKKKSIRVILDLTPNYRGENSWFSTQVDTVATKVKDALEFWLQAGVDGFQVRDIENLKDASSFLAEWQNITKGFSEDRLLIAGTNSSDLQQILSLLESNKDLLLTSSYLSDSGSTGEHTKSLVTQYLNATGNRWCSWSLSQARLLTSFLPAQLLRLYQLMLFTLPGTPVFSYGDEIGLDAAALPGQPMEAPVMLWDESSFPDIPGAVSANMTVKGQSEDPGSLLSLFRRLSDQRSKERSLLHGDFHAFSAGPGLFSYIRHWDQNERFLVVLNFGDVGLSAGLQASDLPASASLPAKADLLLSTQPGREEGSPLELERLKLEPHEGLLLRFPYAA
T1 sequence (O14980 whole entry): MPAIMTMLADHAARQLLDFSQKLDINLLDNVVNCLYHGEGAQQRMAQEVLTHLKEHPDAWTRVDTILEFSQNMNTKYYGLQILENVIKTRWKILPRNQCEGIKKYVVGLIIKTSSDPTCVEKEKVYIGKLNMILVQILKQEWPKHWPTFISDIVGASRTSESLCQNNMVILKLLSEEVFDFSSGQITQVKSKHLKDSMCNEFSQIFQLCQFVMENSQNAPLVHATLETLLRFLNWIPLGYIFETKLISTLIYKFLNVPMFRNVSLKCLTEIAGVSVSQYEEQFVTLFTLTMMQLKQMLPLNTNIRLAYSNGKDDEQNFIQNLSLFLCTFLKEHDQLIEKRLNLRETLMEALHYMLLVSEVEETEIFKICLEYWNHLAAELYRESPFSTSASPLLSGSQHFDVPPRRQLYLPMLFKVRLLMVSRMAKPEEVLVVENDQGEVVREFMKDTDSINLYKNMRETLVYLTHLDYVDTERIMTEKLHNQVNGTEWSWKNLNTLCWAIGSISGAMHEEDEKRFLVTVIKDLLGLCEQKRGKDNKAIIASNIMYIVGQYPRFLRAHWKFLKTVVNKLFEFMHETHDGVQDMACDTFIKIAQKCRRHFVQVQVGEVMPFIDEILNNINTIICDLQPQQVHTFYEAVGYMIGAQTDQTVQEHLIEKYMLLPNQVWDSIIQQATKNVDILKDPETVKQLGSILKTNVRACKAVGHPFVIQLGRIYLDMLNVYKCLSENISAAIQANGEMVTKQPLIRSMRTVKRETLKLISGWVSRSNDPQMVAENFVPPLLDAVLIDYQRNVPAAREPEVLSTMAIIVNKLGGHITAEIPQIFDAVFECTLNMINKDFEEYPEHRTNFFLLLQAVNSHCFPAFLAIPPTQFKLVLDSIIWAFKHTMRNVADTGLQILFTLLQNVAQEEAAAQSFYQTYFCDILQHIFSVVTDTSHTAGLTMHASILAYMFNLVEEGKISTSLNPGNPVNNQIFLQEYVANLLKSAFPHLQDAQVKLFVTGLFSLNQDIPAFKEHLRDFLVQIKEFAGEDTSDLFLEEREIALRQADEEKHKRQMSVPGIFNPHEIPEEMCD

With `Cn1cnc(N)c2ncnc1-2` [3-MA, 3-methyl adenine], the “proteasome localization without exogenous starvation” value in the experiment on 26S proteasome is reported as “induced the same effect”. Regarding `N[C@@H](Cc1ccc(O)cc1)C(=O)O` [Tyr, 4-hydroxyphenylalanine], the “starvation-induced proteasome translocation from the nucleus to the cytosol” value with 26S proteasome was “significant effect”. As for Ivermectin, the “proteasome localization without exogenous starvation” value with 26S proteasome is recorded as “cytosolic accumulation”. Turning to `CC(C)C[C@H](NC(=O)CNC(=O)c1cc(Cl)ccc1Cl)B(O)O` [Ixazomib, N^2-(2,5-Dichlorobenzoyl)-N-[(1R)-1-(dihydroxyboryl)-3-methylbutyl]glycinamide], the “mode of PSMB5 inhibition” value in experiment [1] was “selectively and reversibly inhibits”. On to Tunicamycin, for which the “proteasome localization without exogenous starvation” value in the experiment on 26S proteasome is reported as “inducing proteasome nuclear export”. Still for that read-out and setting: under `CCC(=O)N1CCN(c2ccc(-n3c(=O)ccc4cnc5ccc(-c6cnc7ccccc7c6)cc5c43)cc2C(F)(F)F)CC1` [Torin1] stands “induces nuclear export of both 20S and 19S sub-complexes”. As for `N[C@@H](Cc1c[nH]c2ccccc12)C(=O)O` [Trp, Tryptophan], in the experiment with 26S proteasome, the “starvation-induced proteasome translocation from the nucleus to the cytosol” value is “significant effect”. Turning to `N[C@@H](Cc1cccc(Oc2ccc3ccccc3c2)c1)C(=O)O` [3-(2-naphthyloxy)-L-phenylalanine], the “intracellular 14C-Leucine” value in experiment [2] is “reduction”. Further, in experiment [3], the “T24 cell line proliferation” value is on record as “inhibition”. Besides, the tumor growth result in the experiment on tumor was “inhibition of tumor growth”.

For `CCC(=C/[C@H](C)C/C=C/C(C)=C/[C@@H](C)C(=O)[C@@H](C)[C@H](O)[C@@H](C)C/C(C)=C/C(=O)O)/C=C/[C@@H]1OC(=O)C=C[C@@H]1C` [LMB, Leptomycin B], the “migration of proteasomal activity from the nucleus” value with proteasome is “inhibits the migration of proteasomal activity from the nucleus”. The “starvation-induced reduction in the level of ~900 proteins” value in the experiment on cellular proteins [4] is on record as “prevented”. Moreover, the “gain in amino acids produced by Torin1” value in experiment [5] was “significantly inhibits the gain in amino acids”. Moreover, the “proteasome distribution in cells lacking NUP93” value with 26S proteasome (NUP93 silenced, starvation) is recorded as “neither YWF nor LMB had a significant effect on its distribution”. Also, in the experiment with 26S proteasome, the “proteasome localization without exogenous starvation” value was “nuclear accumulation of the proteasome” and the “starvation-induced proteasome translocation from the nucleus to the cytosol” value was “inhibition of the translocation”. Besides, the “cellular distribution of GFP fused to nuclear export signal (NES)” value on exportin-1 is listed as “leads to nuclear accumulation”. Moreover, the “starvation-induced stimulation of protein breakdown” value in the experiment on cellular proteins [6] is listed as “inhibition of starvation-induced stimulation of protein breakdown”. Also, in the experiment with ubiquitin adducts, the “degradation and depletion of ubiquitin adducts” value was “inhibits degradation and depletion of ubiquitin adducts”. With `C[C@@H]1C[C@@H]([C@H](O)CC2CC(=O)NC(=O)C2)C(=O)[C@@H](C)C1` [cycloheximide], the “reappearance of the proteasome in the nucleus after amino acid replenishment” value in the experiment on 26S proteasome (8 h starvation, then replenishment in presence of the substance) is recorded as “does not prevent the reappearance of the proteasome in the nucleus”.

With `CC(C)C[C@H](NC(=O)[C@H](CCc1ccccc1)NC(=O)CN1CCOCC1)C(=O)N[C@@H](Cc1ccccc1)C(=O)N[C@@H](CC(C)C)C(=O)[C@@]1(C)CO1` [carfilzomib, (2S)-4-Methyl-N-[(2S)-1-[[(2S)-4-methyl-1-[(2R)-2-methyloxiran-2-yl]-1-oxopentan-2-yl]amino]-1-oxo-3-phenylpropan-2-yl]-2-[[(2S)-2-[(2-morpholin-4-ylacetyl)amino]-4-phenylbutanoyl]amino]pentanamide], the “mode of PSMB5 inhibition” value in [1] is “irreversibly”.
